Assay results: US20090093491A1, “Diazine Azole Derivatives, Their Manufacture and Use as Pharmaceutical” (priority 2005, published 2009)

Experiments:
[1] = system: HEK293 cells; assay: CellTiter-Glo Luminescent Cell Viability Assay in HEK293 cells; type: cell-based; details: Homo sapiens, 7 days (168 h) incubation, 3 μM to 0.00015 μM
Text: CellTiter-Glo™ Assay in HEK293 Cells
The CellTiter-Glo™ Luminescent Cell Viability Assay (Promega) is a homogeneous method of determining the number of viable cells in culture based on quantitation of the ATP present, which signals the presence of metabolically active cells.
HEK293 cells (human embryonic kidney cell line transformed by Adenovirus 5 fragments, ATCC-No. CRL 1573) are cultivated in Dulbecco's Modified Eagle Medium (DMEM) with Glutamax™ (Invitrogen, 31966-021), 5% Fetal Calf Serum (FCS, Sigma Cat-No. F4135 (FBS)), 100 Units/ml penicillin/100 μg/ml streptomycin (=Pen/Strep from Invitrogen Cat. No. 15140). For the assay the cells are seeded in 384 well plates, 5000 cells per well, in the same medium. The next day the test compounds are added in various concentrations ranging from 3 μM to 0.00015 μM (10 concentrations, 1:3 diluted). After 7 days the CellTiter-Glo™ assay is done according to the instructions of the manufacturer (CellTiter-Glo™ Luminescent Cell Viability Assay, from Promega). In brief: the cell-plate is equilibrated to room temperature for approximately 30 minutes and than the CellTiter-Glo™ reagent is added. The contents are carefully mixed for 15 minutes to induce cell lysis. After 45 minutes the luminescent signal is measured in Victor 2, (scanning multiwell spectrophotometer, Wallac).
1. day: • Medium: Dulbecco's Modified Eagle Medium (DMEM) with Glutamax™ (Invitrogen, 31966-021), 5% Fetal Calf Serum (FCS, Sigma Cat-No. F4135 (FBS)), Pen/Strep (Invitrogen Cat. No. 15140). • HEK293 (ATCC-No. CRL 1573): 5000 cells in 60 μl per well of 384 well plate (Greiner 781098, white plates) • Incubate 24 h at 37° C., 5% CO2 2. day: Induction (Substance testing):
In general the dilution steeps are 1:3 • a) Add 8 μl of 10 mM stock solution of compound to 72 μl DMSO • b) dilute 9× 1:3 (always 30 μl to 60 μl DMSO) in this DMSO dilution row (results in 10 wells with concentrations from 1000 μM to 0.06 μM) • c) dilute each concentration 1:4.8 (10 μl compound dilution to 38 μl medium) • d) dilute each concentration 1:10 (10 μl compound dilution to 90 μl medium) • e) add 10 μl of every concentration to 60 μl medium in the cell plate • resulting in final concentration of DMSO: 0.3% in every well • and resulting in final concentration of compounds from 3 μM to 0.00015 μM • Incubate 168 h (7 days) at 37° C., 5% CO2
• Add 30 μl CellTiter-Glo™ Reagent/well, • shake 15 minutes at room temperature • incubate further 45 minutes at room temperature without shaking.
• Victor 2 scanning multiwell spectrophotometer (Wallac), Luminescence mode • Determine IC50 with XL-fit (XLfit software (ID Business Solution Ltd., Guilford, Surrey, UK)).

melting point [°C]	Compound	IC50 [1] [nM]
121 to 123	FC(F)(F)Oc1ccc(/C=C/c2nc(COc3cnc(CCCCn4cncn4)cn3)co2)cc1 [Example 7, 2-(4-[1,2,4]Triazol-1-yl-butyl)-5-{2-[(E)-2-(4-trifluoromethoxy-phenyl)-vinyl]-oxazol-4-ylmethoxy}-pyrazine]	–
156 to 157	FC(F)(F)c1ccc(/C=C/c2nc(COc3ncc(CCCCn4cccn4)cn3)co2)cc1 [Example 9, 5-(4-Pyrazol-1-yl-butyl)-2-{2-[(E)-2-(4-trifluoromethyl-phenyl)-vinyl]-oxazol-4-ylmethoxy}-pyrimidine]	–
157 to 158	Clc1ccc(/C=C/c2nc(COc3cnc(CCCCn4cncn4)cn3)co2)cc1 [Example 6, 2-{2-[(E)-2-(4-Chloro-phenyl)-vinyl]-oxazol-4-ylmethoxy}-5-(4-[1,2,4]triazol-1-yl-butyl)-pyrazine]	1340
145 to 146	FC(F)(F)c1ccc(/C=C/c2nc(COc3ccc(CCCCn4cncn4)nn3)co2)cc1 [Example 3, 3-(4-[1,2,4]Triazol-1-yl-butyl)-6-{2-[(E)-2-(4-trifluoromethyl-phenyl)-vinyl]-oxazol-4-ylmethoxy}-pyridazine]	930
141 to 143	Fc1cc(C(F)(F)F)ccc1/C=C/c1nc(COc2ccc(CCCCn3cncn3)nn2)co1 [Example 4, 3-{2-[(E)-2-(2-Fluoro-4-trifluoromethyl-phenyl)-vinyl]-oxazol-4-ylmethoxy}-6-(4-[1,2,4]triazol-1-yl-butyl)-pyridazine]	200 to 2000
–	FC(F)(F)Oc1ccc(/C=C/c2nc(COc3ccc(CCCCn4ccnc4)nn3)co2)cc1 [Example 1, 3-(4-Imidazol-1-yl-butyl)-6-{2-[(E)-2-(4-trifluoromethoxy-phenyl)-vinyl]-oxazol-4-ylmethoxy}-pyridazine]	200 to 2000
165 to 167	Clc1ccc(/C=C/c2nc(COc3ccc(CCCCn4cncn4)nn3)co2)cc1 [Example 2, 3-{2-[(E)-2-(4-Chloro-phenyl)-vinyl]-oxazol-4-ylmethoxy}-6-(4-[1,2,4]triazol-1-yl-butyl)-pyridazine]	200 to 2000
149 to 150	Clc1ccc(/C=C/c2nc(COc3ncc(CCCCn4cccn4)cn3)co2)cc1 [Example 10, 5-(4-Pyrazol-1-yl-butyl)-2-{2-[(E)-2-(4-chloro-phenyl)-vinyl]-oxazol-4-ylmethoxy}-pyrimidine]	200 to 2000
143 to 145	FC(F)(F)Oc1ccc(/C=C/c2nc(COc3ncc(CCCCn4cccn4)cn3)co2)cc1 [Example 8, 5-(4-Pyrazol-1-yl-butyl)-2-{2-[(E)-2-(4-trifluoromethoxy-phenyl)-vinyl]-oxazol-4-ylmethoxy}-pyrimidine]	200 to 2000
147 to 148	FC(F)(F)c1ccc(/C=C/c2nc(COc3cnc(CCCCn4cncn4)cn3)co2)cc1 [Example 5, 2-(4-[1,2,4]Triazol-1-yl-butyl)-5-{2-[(E)-2-(4-trifluoromethyl-phenyl)-vinyl]-oxazol-4-ylmethoxy}-pyrazine]	200 to 2000
